Results on five compounds are retold here after patent US8404664B2, “Phosphonated Rifamycins and uses thereof for the prevention and treatment of bone and joint infections” (Targanta Therapeutics, Inc., priority 2005, dated 2013).

In brackets after ≈: the same amount, converted by molar mass. Some results are limits rather than exact numbers.

In test [1] the test system is S. aureus ATCC 13709. Put plainly: Antibacterial susceptibility (MIC), NCCLS broth microdilution. The format is cell-based. The following applies: for Antibacterial activity (in words, summary of Table 1): summary over the strains of Table 1. A digest of the protocol: (§1)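 Two-fold serial dilutions in DMSO tested in cation-adjusted Mueller Hinton broth per NCCLS M26-A, 5×10^5 c.f.u./mL inoculum, 1.25% final DMSO, duplicates.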

Test [2] has as its system S. aureus ATCC 43300 (Fluoroquinolone sensitive MRSA). The test is described as above. The format is cell-based. In a few lines:
as §1

Test [3] concerns S. aureus BK85 (Fluoroquinolone resistant MRSA). Described as above. In kind it is cell-based. A digest of the protocol:
as §1

For another test, the system named is S. aureus RN4220. The description is as above. The following applies: CAMHB, 37° C., 18 h. The format is cell-based. In a few lines:
as §1

Test [4] concerns S. aureus ATCC 13709. Put plainly: Antibacterial susceptibility (MIC) in the presence of serum. In kind it is cell-based. The conditions noted are these: for MIC: Staphylococcus aureus, ATCC13709, 18 h.
The test system of test [5] is E. coli LBB925 (tolC mutant). Put plainly: Antibacterial susceptibility (MIC), NCCLS broth microdilution. The following applies: for Minimum inhibitory concentration, E. coli LBB925: tolC mutant. The format is cell-based.
The test system of test [6] is S. aureus (chronic bone infection). Put plainly: Treatment of chronic osteomyelitis caused by S. aureus in rat model. In kind it is in vivo. The following applies: for Effect on bacterial titer in bone infection versus the untreated control (figure legends) / Decrease in bacterial titer: prodrug iv at 20 mg/kg parent equivalent; for Effect on bacterial titer in bone infection versus the untreated control (figure legends): regimen of the figure, 4 weeks post-infection; for Decrease in bacterial titer: q24hx4+q4 days, FIGS. 3, 4, 5. An excerpt:
To appraise the ability of bisphosphonated prodrugs of Rifamycin derivatives in treating chronic bone infections, a comparison was made between parent compounds 9, 56, 69, rifabutin and rifalazil (all of which are non-bisphosphonated rifamycin derivatives), and their corresponding bisphosphonated prodrugs, respectively 11, 62, 71, 36 and 81, when used to treat chronically (14- to 28-day) infected rats for 4 weeks of antimicrobial therapy.
In this experiment, rats were infected as described in Example 4 and treated with either 20 mg/kg of body weight of the specific rifamycin derived antibacterial agent subcutaneously, or a molar equivalent dose of its bisphosphonated prodrug intravenously according to the indicated schedule after instillation of bacteria. The standard controls involving no treatment and a subcutaneous treatment of 20 mg/kg of Rifampicin daily were also included. The rats were humanely sacrificed at the conclusion of the experiment and the bacterial titers in the infected tibiae were determined.
This experiment was performed with 20 mg/kg of body weight of rifamycin derivative 9 subcutaneously or with 32 mg/kg of its prodrug 11 (corresponding to 20 mg/kg of 9) intravenously on each of the 20th, 24th, 28th, 32nd, 36th, 40th and […] days (q4 days) after instillation of bacteria. Alternatively, 11 was administered by the same route and at the same dose on the 20th, 21st, 22nd, 23rd, 30th, 37th, 44th and 47th days (q24hx4+q7d) after the instillation of bacteria. The same controls (no treatment or daily subcutaneous 20 mg/kg dose of rifampicin) were used. The rats were humanely sacrificed on the 48th day after the initiation of infection and the bacterial titers in the infected tibiae were determined.
This experiment was also executed in which similarly infected rats were treated with either 20 mg/kg of body weight of rifabutin subcutaneously or with 33.4 mg/kg of its prodrug 36 (corresponding to 20 mg/kg of rifabutin) intravenously on each of the 28th, 32nd, 36th, 40th, 44th, 48th and 52nd days (q4 days) after instillation of bacteria. The same controls (no treatment or daily subcutaneous 20 mg/kg dose of rifampicin) were used. The rats were humanely sacrificed on the 55th day after the initiation of infection and the bacterial titers in the infected tibiae were determined.
This experiment was also executed in which similarly infected rats were treated with either 20 mg/kg of body weight of the rifamycin derived antibacterial agent 56 subcutaneously or with 26 mg/kg of its prodrug 62 (corresponding to 20 mg/kg of 56) intravenously on each of the 27th, 28th, 29th, 30th, 34th, 38th, 42nd, 46th and 50th days (q24hx4+q4 days) after instillation of bacteria. The same controls (no treatment or daily subcutaneous 20 mg/kg dose of rifampicin) were used. The rats were humanely sacrificed on the 51^St day after the initiation of infection and the bacterial titers in the infected tibiae were determined.
This experiment was also executed in which similarly infected rats were treated with either 20 mg/kg of body weight of the rifamycin derived antibacterial agent 69 subcutaneously or with 28 mg/kg of its prodrug 71 (corresponding to 20 mg/kg of 69) intravenously on each of the 18th, 19th, 20th, 21st, 25th, 29th, 33rd, 37th, 41st and 45th days (q24hx4+q4 days) after instillation of bacteria. The same controls (no treatment or daily subcutaneous 20 mg/kg dose of rifampicin) were used. The rats were humanely sacrificed on the 46th day after the initiation of infection and the bacterial titers in the infected tibiae were determined.

Where [7] appears, read: FIG. 1: 9 20 mg/kg sc q4 days, 11 32 mg/kg iv q4d or q24hx4+q7d.

Take “3-(((4-(2-(3-((bisphosphonomethyl)carbamoyl)propanoyloxy)ethyl)-1-piperazinyl)imino)methyl)rifamycin [Compound 11]”: the “Minimum inhibitory concentration, S. aureus ATCC 13709” value in the test with S. aureus ATCC 13709 [1] came out at 0.125 µg/mL. For the same compound, in test [2], the “Minimum inhibitory concentration, S. aureus ATCC 43300” value stood at 0.25 µg/mL. The “Minimum inhibitory concentration, S. aureus BK85” value in test [3] is 0.25 µg/mL. Moreover, in the test with S. aureus RN4220, the “Minimum inhibitory concentration, S. aureus RN4220” value worked out at 0.25 µg/mL. Besides, in the test on S. aureus ATCC 13709 [4], the “Impact of serum on the MICs (in words)” value is “no impact”; the “Minimum inhibitory concentration, S. aureus ATCC 13709 + 50% Human Serum” value was 0.25 µg/mL; the “Minimum inhibitory concentration, S. aureus ATCC 13709 + 50% Mouse Serum” value amounted to 0.25 µg/mL; the “Minimum inhibitory concentration, S. aureus ATCC 13709 + 50% Rat Serum” value was found to be 0.25 µg/mL. In addition, the “Minimum inhibitory concentration, E. coli LBB925” value in test [5] stood at 32 µg/mL. Besides, the “Effect on bacterial titer in bone (in words)” value in test [6] (setting [7]) is on record as “not statistically significant”. For the same compound, the “Effect on bacterial titer in bone infection versus the untreated control (figure legends)” value in test [6] is reported as “small but not statistically significant effect”.

Consider `CO[C@H]1/C=C/O[C@@]2(C)Oc3c(C)c(O)c4c(O)c(c(/C=N/N5CCN(CCO)CC5)c(O)c4c3C2=O)NC(=O)/C(C)=C\C=C\[C@H](C)[C@H](O)[C@@H](C)[C@@H](O)[C@@H](C)[C@H](OC(C)=O)[C@@H]1C` [Compound 9, 3-(((4-(2-hydroxyethyl)-1-piperazinyl)imino)methyl)rifamycin], for which the MIC is 0.016 µg/mL (≈ 0.0188 µM) with S. aureus ATCC 13709 [1] (Staphylococcus aureus, ATCC13709, read-out: Minimum inhibitory concentration, S. aureus ATCC 13709); 0.016 µg/mL (≈ 0.0188 µM) in test [2] (Staphylococcus aureus, read-out: Minimum inhibitory concentration, S. aureus ATCC 43300); 0.016 µg/mL (≈ 0.0188 µM) in test [3] (Staphylococcus aureus, read-out: Minimum inhibitory concentration, S. aureus BK85); 0.016 µg/mL (≈ 0.0188 µM) in the test with S. aureus RN4220 (Staphylococcus aureus, RN4220, read-out: Minimum inhibitory concentration, S. aureus RN4220); 0.062 µg/mL with S. aureus ATCC 13709 [4] (read-out: Minimum inhibitory concentration, S. aureus ATCC 13709 + 50% Human Serum); 0.062 µg/mL in the test on S. aureus ATCC 13709 [4] (read-out: Minimum inhibitory concentration, S. aureus ATCC 13709 + 50% Mouse Serum). For the same compound, the MIC in the test on S. aureus ATCC 13709 [4] (read-out: Minimum inhibitory concentration, S. aureus ATCC 13709 + 50% Rat Serum) was 0.062 µg/mL; in test [5] (Escherichia coli, read-out: Minimum inhibitory concentration, E. coli LBB925), 16 µg/mL (≈ 18.8 µM). In addition, the “Effect on bacterial titer in bone (in words)” value in test [6] (20 mg/kg sc once daily, 15th to 28th day after infection, FIG. 6) was “smaller but still statistically significant reduction”; in test [6] (setting [7]), “completely ineffective”.

For the compound `CO[C@H]1/C=C/O[C@@]2(C)Oc3c(C)c(O)c4c(=O)c(c5oc6cc(N7CCN(CC(C)C)CC7)cc(O)c6nc-5c4c3C2=O)NC(=O)/C(C)=C\C=C\[C@H](C)[C@H](OC(=O)CCCOC(=O)CCC(=O)NC(P(=O)(O)O)P(=O)(O)O)[C@@H](C)[C@@H](O)[C@@H](C)[C@H](OC(C)=O)[C@@H]1C` [Compound 81, 21-O-(4-((3-(bisphosphonomethyl)carbamoyl)propanoyloxy)butanoyl)-1′,4-Didehydro-1-deoxy-1,4-dihydro-3′-hydroxy-5′-[4-(2-methylpropyl)-1-piperazinyl]-1-oxorifamycin VIII], in the test on S. aureus ATCC 13709 [1], the “Minimum inhibitory concentration, S. aureus ATCC 13709” value was found to be 0.001 µg/mL (≈ 0.000769 µM) and the “Antibacterial activity (in words, summary of Table 1)” value (“Antibacterial activity” below) is on record as “very low MICs”. Also, in test [2], the “Minimum inhibitory concentration, S. aureus ATCC 43300” value came to 0.001 µg/mL (≈ 0.000769 µM). Besides, the “Minimum inhibitory concentration, S. aureus BK85” value in test [3] stood at 0.001 µg/mL (≈ 0.000769 µM). Moreover, the “Minimum inhibitory concentration, S. aureus RN4220” value with S. aureus RN4220 is 0.001 µg/mL (≈ 0.000769 µM). Moreover, in the test with S. aureus ATCC 13709 [4], the “Minimum inhibitory concentration, S. aureus ATCC 13709 + 50% Human Serum” value turned out to be 0.125 µg/mL; the “Minimum inhibitory concentration, S. aureus ATCC 13709 + 50% Mouse Serum” value amounted to 0.0625 µg/mL; the “Minimum inhibitory concentration, S. aureus ATCC 13709 + 50% Rat Serum” value worked out at 0.03125 µg/mL. Also, in test [5], the “Minimum inhibitory concentration, E. coli LBB925” value is over 128 µg/mL. Besides, in test [6], the “Decrease in bacterial titer” value is reported as “approximately 1 logarithmic order of magnitude” and the “Effect on bacterial titer in bone infection versus the untreated control (figure legends)” value is listed as “small but statistically significant effect”.

In the case of `CO[C@H]1/C=C/O[C@@]2(C)Oc3c(C)c(O)c4c(=O)c(c5oc6cc(N7CCN(CCOC(=O)CCC(=O)NC(P(=O)(O)O)P(=O)(O)O)CC7)cc(O)c6nc-5c4c3C2=O)NC(=O)/C(C)=C\C=C\[C@H](C)[C@H](O)[C@@H](C)[C@@H](O)[C@@H](C)[C@H](OC(C)=O)[C@@H]1C.N.N` [Compound 62], in the test with S. aureus ATCC 13709 [1], the “Minimum inhibitory concentration, S. aureus ATCC 13709” value turned out to be 0.0039 µg/mL and the “Antibacterial activity” value is on record as “very low MICs”. Further, in test [2], the “Minimum inhibitory concentration, S. aureus ATCC 43300” value was found to be 0.0078 µg/mL. For the same compound, the “Minimum inhibitory concentration, S. aureus BK85” value in test [3] turned out to be 0.0078 µg/mL. Moreover, the “Minimum inhibitory concentration, S. aureus RN4220” value in the test on S. aureus RN4220 turned out to be 0.0078 µg/mL. For the same compound, in the test on S. aureus ATCC 13709 [4], the “Minimum inhibitory concentration, S. aureus ATCC 13709 + 50% Human Serum” value is 0.032 µg/mL; the “Minimum inhibitory concentration, S. aureus ATCC 13709 + 50% Mouse Serum” value was determined as 0.032 µg/mL; the “Minimum inhibitory concentration, S. aureus ATCC 13709 + 50% Rat Serum” value was determined as 0.0156 µg/mL. Also, the “Minimum inhibitory concentration, E. coli LBB925” value in test [5] is over 128 µg/mL. For the same compound, in test [6], the “Decrease in bacterial titer” value is given as “approximately 1 logarithmic order of magnitude” and the “Effect on bacterial titer in bone infection versus the untreated control (figure legends)” value is given as “small but statistically significant effect”.

Consider `CO[C@H]1/C=C/O[C@@]2(C)Oc3c(C)c(O)c4c(=O)c(c5oc6cc(N7CCN(CCC(=O)c8ccc(OCCCC(P(=O)(O)O)P(=O)(O)O)cc8)CC7)cc(O)c6nc-5c4c3C2=O)NC(=O)/C(C)=C\C=C\[C@H](C)[C@H](O)[C@@H](C)[C@@H](O)[C@@H](C)[C@H](OC(C)=O)[C@@H]1C` [Compound 71], for which, in the test on S. aureus ATCC 13709 [1], the “Minimum inhibitory concentration, S. aureus ATCC 13709” value was 0.0019 µg/mL (≈ 0.00152 µM) and the “Antibacterial activity” value is listed as “very low MICs”. Also, in test [2], the “Minimum inhibitory concentration, S. aureus ATCC 43300” value was 0.0019 µg/mL (≈ 0.00152 µM). In test [3], the “Minimum inhibitory concentration, S. aureus BK85” value was determined as 0.0019 µg/mL (≈ 0.00152 µM). In addition, the “Minimum inhibitory concentration, S. aureus RN4220” value in the test with S. aureus RN4220 worked out at 0.0039 µg/mL (≈ 0.00312 µM). Further, in the test on S. aureus ATCC 13709 [4], the “Minimum inhibitory concentration, S. aureus ATCC 13709 + 50% Human Serum” value is 0.032 µg/mL; the “Minimum inhibitory concentration, S. aureus ATCC 13709 + 50% Mouse Serum” value was 0.032 µg/mL; the “Minimum inhibitory concentration, S. aureus ATCC 13709 + 50% Rat Serum” value came to 0.032 µg/mL. Also, the “Minimum inhibitory concentration, E. coli LBB925” value in test [5] was over 128 µg/mL. In addition, in test [6], the “Decrease in bacterial titer” value was “approximately 1 logarithmic order of magnitude” and the “Effect on bacterial titer in bone infection versus the untreated control (figure legends)” value is reported as “small but statistically significant effect”.
